Assay results as given in EP4803094A2, “GLP-1/GIP DUAL, GLP-1/GCG DUAL AND GLP-1/GIP/GCG TRIPLE RECEPTOR AGONISTS” (Sun Pharmaceutical Industries Limited, priority 2023, dated 2024).
Marks after values point to notes of the source that are not given here.

What was measured:
Format in all cases: in vivo
Rats [1] = test: Oral Glucose Tolerance Test (OGTT) in rats, single injection (blood glucose AUC, body weight, food consumption); conditions: for Food Consumption (g) / Body weight change (%): 30 nM/kg s.c.; for Food Consumption (g): 0-12 hr; for Food Consumption (g) / Body weight change (%) / Blood Glucose AUC(0-120min) Mean: mean (n=4); for Blood Glucose AUC(0-120min) Mean: OGTT 2 g/kg glucose orally, 24 hr post subcutaneous injection of 30 nM/kg; for % Change in Blood glucose AUC(0-120min) vs placebo control: OGTT 24 hr post subcutaneous injection of 30 nM/kg
Description: Animals were divided into 6 groups (n=4/group): a placebo control group, Compound 17, (30 nM/kg), Compound 18 (30 nM/kg), Compound 19 (30 nM/kg), Compound 20 (30 nM/kg), and Retatrutide (30 nM/kg). Animals were fasted for 12 hours before initiation of OGTT. After 24 hours of subcutaneous injection of tests or Retatrutide, blood glucose was measured with blood glucometer (time 0 measurement). All the animals were given 2 g/kg of glucose solution orally. Blood glucose was measured at 10, 20, 40, 60, 90, and 120 min following glucose challenge. Body weight and food consumption were recorded at 12 hr, 48 hr and 72 hr.

Rats [2] = test: as above; conditions: 30 nM/kg s.c., mean (n=4); for Body weight change (%): 24 hr
[3] = test system: Type 2 diabetes mouse (db/db) model; test: Efficacy study in db/db mice (blood glucose, body weight, food consumption); conditions: 10 nM/kg s.c. single dose, mean (n=6)
Description: The effect of the compounds as described herein on blood glucose, food intake and body weight were studied in mice. This study was performed in Type 2 diabetes mouse (db/db) model. The animals were divided into 9 treatment groups (n=6): a diabetic control group, Compound 12 (10 nM/kg), Compound 13 (10 nM/kg), Compound 26 (10 nM/kg), Compound 14 (10 nM/kg), Compound 15 (10 nM/kg), Compound 21 (10 nM/kg), Compound 22 (10 nM/kg), and Tirzepatide (10 nM/kg). Baseline blood glucose was measured from all the animals. All the animals were administered with test item subcutaneously. Blood glucose was measured at 4 hr, 8 hr, 12 hr, 24 hr, 48 hr, 72 hr, and 96 hr post treatment. Delta blood glucose (mM) was calculated. Body weight changes and cumulative food consumption were measured at 48 hr and 96 hr post treatment. Table 3. Effect on Blood Glucose

SMILES	Food Consumption (g) (Rats [1])	Body weight change (%) (Rats [1]; 48 hr)	Body weight change (%) (Rats [1]; 72 hr)	Blood Glucose AUC(0-120min) Mean (Rats [1])	% Change in Blood glucose AUC(0-120min) vs placebo control (Rats [1])	Food Consumption (g) (Rats [2]; 24-48 hr)	Food Consumption (g) (Rats [2]; 24-72 hr)	Body weight change (%) (Rats [2])	Cumulative Food Consumption (g) 0-48 hr [3]	Cumulative Food Consumption (g) 0-96 hr [3]	Delta Blood Glucose ([3]; 4 hr post treatment)	Delta Blood Glucose (mM) ([3]; 24 hr post treatment)	Delta Blood Glucose (mM) ([3]; 48 hr post treatment)	Body Weight Change (%) 48 hr [3]	Delta Blood Glucose ([3]; 96 hr post treatment)	Body Weight Change (%) 96 hr [3]	also measured
CC[C@H](C)[C@H](NC(=O)[C@H](Cc1ccccc1)NC(=O)[C@H](C)NC(=O)C(C)(C)NC(=O)[C@H](CCC(N)=O)NC(=O)[C@H](C)NC(=O)[C@H](CCCCNC(=O)COCCOCCNC(=O)NCCCCNC(=O)CC[C@H](NC(=O)CCCCCCCCCCCCCCCCC(=O)O)C(=O)O)NC(=O)[C@H](CCCCN)NC(=O)[C@H](CC(=O)O)NC(=O)[C@H](CC(C)C)NC(=O)[C@](C)(CC(C)C)NC(=O)[C@@H](NC(=O)[C@H](CO)NC(=O)[C@H](Cc1ccc(O)cc1)NC(=O)[C@H](CC(=O)O)NC(=O)[C@H](CO)NC(=O)[C@@H](NC(=O)[C@H](Cc1ccccc1)NC(=O)[C@@H](NC(=O)CNC(=O)[C@H](CCC(N)=O)NC(=O)C(C)(C)NC(=O)[C@@H](N)Cc1ccc(O)cc1)[C@@H](C)O)[C@@H](C)O)[C@@H](C)CC)C(=O)N[C@@H](CCC(=O)O)C(=O)N[C@@H](Cc1ccc(O)cc1)C(=O)N[C@@H](CC(C)C)C(=O)N[C@@H](CC(C)C)C(=O)N[C@@H](CCC(=O)O)C(=O)NCC(=O)NCC(=O)N1CCC[C@H]1C(=O)N[C@@H](CO)C(=O)N[C@@H](CO)C(=O)NCC(=O)N[C@@H](C)C(=O)N1CCC[C@H]1C(=O)N1CCC[C@H]1C(=O)N1CCC[C@H]1C(=O)N[C@@H](CO)C(N)=O [Compound 19]	1.3*** g	-4.9*** %	-2.6*** %	3848.8***	-60.20%	7.2*** g	17.0*** g	-6.3*** %	–	–	–	–	–	–	–	–	–
CC[C@H](C)[C@H](NC(=O)[C@H](Cc1ccccc1)NC(=O)[C@H](C)NC(=O)C(C)(C)NC(=O)[C@H](CCC(N)=O)NC(=O)[C@H](C)NC(=O)[C@H](CCCCNC(=O)COCCOCCNC(=O)NCCCCNC(=O)CC[C@H](NC(=O)CCCCCCCCCCCCCCCCCCC(=O)O)C(=O)O)NC(=O)[C@H](CCCCN)NC(=O)[C@H](CC(=O)O)NC(=O)[C@H](CC(C)C)NC(=O)[C@](C)(CC(C)C)NC(=O)[C@@H](NC(=O)[C@H](CO)NC(=O)[C@H](Cc1ccc(O)cc1)NC(=O)[C@H](CC(=O)O)NC(=O)[C@H](CO)NC(=O)[C@@H](NC(=O)[C@H](Cc1ccccc1)NC(=O)[C@@H](NC(=O)CNC(=O)[C@H](CCC(N)=O)NC(=O)C(C)(C)NC(=O)[C@@H](N)Cc1ccc(O)cc1)[C@@H](C)O)[C@@H](C)O)[C@@H](C)CC)C(=O)N[C@@H](CCC(=O)O)C(=O)N[C@@H](Cc1ccc(O)cc1)C(=O)N[C@@H](CC(C)C)C(=O)N[C@@H](CC(C)C)C(=O)N[C@@H](CCC(=O)O)C(=O)NCC(=O)NCC(=O)N1CCC[C@H]1C(=O)N[C@@H](CO)C(=O)N[C@@H](CO)C(=O)NCC(=O)N[C@@H](C)C(=O)N1CCC[C@H]1C(=O)N1CCC[C@H]1C(=O)N1CCC[C@H]1C(=O)N[C@@H](CO)C(N)=O [Compound 20]	1.6*** g	-4.6*** %	-2.7*** %	4472.5***	-53.76%	12.8*** g	33.1*** g	-6.0*** %	–	–	–	–	–	–	–	–	–
CC[C@H](C)[C@H](NC(=O)[C@H](Cc1ccccc1)NC(=O)[C@H](C)NC(=O)C(C)(C)NC(=O)[C@H](CCC(N)=O)NC(=O)[C@H](C)NC(=O)[C@H](CCCCNC(=O)COCCOCCNC(=O)C(C)(C)NC(=O)CC[C@H](NC(=O)CCCCCCCCCCCCCCCCC(=O)O)C(=O)O)NC(=O)[C@H](CCCCN)NC(=O)[C@H](CC(=O)O)NC(=O)[C@H](CC(C)C)NC(=O)[C@](C)(CC(C)C)NC(=O)[C@@H](NC(=O)[C@H](CO)NC(=O)[C@H](Cc1ccc(O)cc1)NC(=O)[C@H](CC(=O)O)NC(=O)[C@H](CO)NC(=O)[C@@H](NC(=O)[C@H](Cc1ccccc1)NC(=O)[C@@H](NC(=O)CNC(=O)[C@H](CCC(N)=O)NC(=O)C(C)(C)NC(=O)[C@@H](N)Cc1ccc(O)cc1)[C@@H](C)O)[C@@H](C)O)[C@@H](C)CC)C(=O)N[C@@H](CCC(=O)O)C(=O)N[C@@H](Cc1ccc(O)cc1)C(=O)N[C@@H](CC(C)C)C(=O)N[C@@H](CC(C)C)C(=O)N[C@@H](CCC(=O)O)C(=O)NCC(=O)NCC(=O)N1CCC[C@H]1C(=O)N[C@@H](CO)C(=O)N[C@@H](CO)C(=O)NCC(=O)N[C@@H](C)C(=O)N1CCC[C@H]1C(=O)N1CCC[C@H]1C(=O)N1CCC[C@H]1C(=O)N[C@@H](CO)C(N)=O [Compound 12]	–	–	–	–	–	–	–	–	3.1*** g	10.9*** g	-3.2 mM	-13.7*** mM	-11.4*** mM	-8.0*** %	-6.4 mM	-3.7*** %	Delta Blood Glucose (mM) ([3]; 8 hr post treatment): -8.9* mM; Delta Blood Glucose (mM) ([3]; 12 hr post treatment): -13.2*** mM; Delta Blood Glucose (mM) ([3]; 72 hr post treatment): -9.2** mM
CC[C@H](C)[C@H](NC(=O)[C@H](Cc1ccccc1)NC(=O)[C@H](C)NC(=O)C(C)(C)NC(=O)[C@H](CCC(N)=O)NC(=O)[C@H](C)NC(=O)[C@H](CCCCNC(=O)COCCOCCNC(=O)CC[C@H](NC(=O)CCCCCCCCCCCCCCCCCCC(=O)O)C(=O)O)NC(=O)[C@H](CCCCN)NC(=O)[C@H](CC(=O)O)NC(=O)[C@H](CC(C)C)NC(=O)[C@](C)(CC(C)C)NC(=O)[C@@H](NC(=O)[C@H](CO)NC(=O)[C@H](Cc1ccc(O)cc1)NC(=O)[C@H](CC(=O)O)NC(=O)[C@H](CO)NC(=O)[C@@H](NC(=O)[C@H](Cc1ccccc1)NC(=O)[C@@H](NC(=O)CNC(=O)[C@H](CCC(N)=O)NC(=O)C(C)(C)NC(=O)[C@@H](N)Cc1ccc(O)cc1)[C@@H](C)O)[C@@H](C)O)[C@@H](C)CC)C(=O)N[C@@H](CCC(=O)O)C(=O)N[C@@H](Cc1ccc(O)cc1)C(=O)N[C@@H](CC(C)C)C(=O)N[C@@H](CC(C)C)C(=O)N[C@@H](CCC(=O)O)C(=O)NCC(=O)NCC(=O)N1CCC[C@H]1C(=O)N[C@@H](CO)C(=O)N[C@@H](CO)C(=O)NCC(=O)N[C@@H](C)C(=O)N1CCC[C@H]1C(=O)N1CCC[C@H]1C(=O)N1CCC[C@H]1C(=O)N[C@@H](CO)C(N)=O [Retatrutide, reference compound]	0.7*** g	-4.5*** %	-2.5*** %	3792.5***	-60.79%	8.6*** g	23.8*** g	-6.0*** %	–	–	–	–	–	–	–	–	–
CCCC[C@H](NC(=O)[C@@H](NC(=O)[C@H](CO)NC(=O)[C@H](Cc1ccc(O)cc1)NC(=O)[C@H](CC(=O)O)NC(=O)[C@H](CO)NC(=O)[C@@H](NC(=O)[C@H](Cc1ccccc1)NC(=O)[C@@H](NC(=O)CNC(=O)[C@H](CCC(N)=O)NC(=O)C(C)(C)NC(=O)[C@@H](N)Cc1ccc(O)cc1)[C@@H](C)O)[C@@H](C)O)[C@@H](C)CC)C(=O)N[C@@H](CC(C)C)C(=O)N[C@@H](CC(=O)O)C(=O)N[C@@H](CCCCN)C(=O)N[C@@H](CCCCNC(=O)COCCOCCNC(=O)C(C)(C)NC(=O)CC[C@H](NC(=O)CCCCCCCCCCCCCCCCCCC(=O)O)C(=O)O)C(=O)N[C@@H](C)C(=O)N[C@@H](CCC(N)=O)C(=O)NC(C)(C)C(=O)N[C@@H](C)C(=O)N[C@@H](Cc1ccccc1)C(=O)N[C@H](C(=O)N[C@@H](CCC(=O)O)C(=O)N[C@@H](Cc1ccc(O)cc1)C(=O)N[C@@H](CC(C)C)C(=O)N[C@@H](CC(C)C)C(=O)N[C@@H](CCC(=O)O)C(=O)NCC(=O)NCC(=O)N1CCC[C@H]1C(=O)N[C@@H](CO)C(=O)N[C@@H](CO)C(=O)NCC(=O)N[C@@H](C)C(=O)N1CCC[C@H]1C(=O)N1CCC[C@H]1C(=O)N1CCC[C@H]1C(=O)N[C@@H](CO)C(N)=O)[C@@H](C)CC [Compound 14]	–	–	–	–	–	–	–	–	3.0*** g	8.3*** g	-3.8 mM	-9.2** mM	-9.3* mM	-8.8*** %	-2.6 mM	-7.1*** %	Delta Blood Glucose ([3]; 8 hr post treatment): -3.1 mM; Delta Blood Glucose ([3]; 12 hr post treatment): -6.2 mM; Delta Blood Glucose ([3]; 72 hr post treatment): -7 mM
